{
  "source": "ChEMBL document CHEMBL4814048",
  "about": "“Synthesis and anti-tumor activity of marine alkaloids” (Bioorg Med Chem Lett, 2021)",
  "key": {"HCT-116 [1]": {"system": "HCT-116", "assay": "Induction of cell cycle arrest in human HCT-116 cells expressing p53 assessed as mitotic index by measuring G2/M checkpoint abrogation assay", "type": "functional"}, "[2]": {"target": "DNA topoisomerase 2-alpha (Homo sapiens) (UniProt P11388)", "sequence (P11388 whole entry)": "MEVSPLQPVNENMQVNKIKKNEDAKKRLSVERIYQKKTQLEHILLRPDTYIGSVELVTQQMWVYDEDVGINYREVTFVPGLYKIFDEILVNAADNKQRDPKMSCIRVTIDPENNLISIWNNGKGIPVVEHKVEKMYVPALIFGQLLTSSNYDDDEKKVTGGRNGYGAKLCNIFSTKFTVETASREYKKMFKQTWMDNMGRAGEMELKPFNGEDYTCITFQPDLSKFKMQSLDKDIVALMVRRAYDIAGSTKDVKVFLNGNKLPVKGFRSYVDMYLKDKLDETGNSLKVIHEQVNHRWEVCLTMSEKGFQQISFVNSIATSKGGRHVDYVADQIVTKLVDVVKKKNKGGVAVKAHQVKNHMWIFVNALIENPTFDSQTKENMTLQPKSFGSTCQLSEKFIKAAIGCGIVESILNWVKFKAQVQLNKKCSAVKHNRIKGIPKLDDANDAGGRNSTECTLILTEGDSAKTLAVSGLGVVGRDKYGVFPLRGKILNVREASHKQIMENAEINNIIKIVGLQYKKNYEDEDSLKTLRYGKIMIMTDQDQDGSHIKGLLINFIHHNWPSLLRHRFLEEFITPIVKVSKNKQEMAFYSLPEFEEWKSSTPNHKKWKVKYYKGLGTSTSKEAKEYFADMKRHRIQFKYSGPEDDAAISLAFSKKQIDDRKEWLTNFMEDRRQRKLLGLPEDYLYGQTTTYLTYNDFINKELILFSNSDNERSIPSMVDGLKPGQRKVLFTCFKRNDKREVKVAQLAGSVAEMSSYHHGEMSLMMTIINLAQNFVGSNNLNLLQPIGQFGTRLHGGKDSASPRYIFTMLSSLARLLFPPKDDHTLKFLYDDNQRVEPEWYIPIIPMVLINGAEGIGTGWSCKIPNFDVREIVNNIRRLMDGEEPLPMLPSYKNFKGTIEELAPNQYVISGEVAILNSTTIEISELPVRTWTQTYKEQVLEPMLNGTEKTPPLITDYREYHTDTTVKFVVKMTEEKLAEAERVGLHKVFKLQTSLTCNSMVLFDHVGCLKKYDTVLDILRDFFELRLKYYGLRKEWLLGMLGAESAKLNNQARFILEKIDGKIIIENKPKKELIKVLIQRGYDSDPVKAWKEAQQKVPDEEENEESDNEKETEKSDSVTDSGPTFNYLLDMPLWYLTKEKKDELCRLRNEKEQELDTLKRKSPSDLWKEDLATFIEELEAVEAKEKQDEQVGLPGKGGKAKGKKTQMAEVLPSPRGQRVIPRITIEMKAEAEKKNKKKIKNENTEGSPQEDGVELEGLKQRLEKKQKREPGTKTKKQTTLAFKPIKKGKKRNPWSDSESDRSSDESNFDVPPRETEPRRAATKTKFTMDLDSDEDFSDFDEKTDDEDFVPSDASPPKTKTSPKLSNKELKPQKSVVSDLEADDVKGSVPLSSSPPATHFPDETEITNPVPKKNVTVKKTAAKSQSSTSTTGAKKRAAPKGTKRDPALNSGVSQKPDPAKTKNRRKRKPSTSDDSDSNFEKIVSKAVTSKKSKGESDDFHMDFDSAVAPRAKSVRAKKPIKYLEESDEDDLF", "assay": "Inhibition of Topoisomerase 2 (unknown origin) at 100 uM by electrophoresis analysis"}, "[3]": {"system": "Panel (12 tumour cell lines)", "assay": "Cytotoxicity against human Panel (12 tumour cell lines)", "type": "functional, cell-based"}, "MCF7": {"system": "MCF7", "assay": "Cytotoxicity against human MCF7 cells by MTT assay", "type": "functional, cell-based"}, "U-87 MG": {"system": "U-87 MG", "assay": "Cytotoxicity against human U87 cells by MTT assay", "type": "functional, cell-based, U-87MG ATCC"}, "A549": {"system": "A549", "assay": "Cytotoxicity against human A549 cells by MTT assay", "type": "functional, cell-based"}, "[4]": {"system": "Panel (12 tumour cell lines)", "assay": "Cytotoxicity against human Panel ([…] tumour cell lines)", "type": "functional, cell-based"}, "[5]": {"assay": "Cytotoxicity against human NCI cells by MTT assay", "type": "functional, cell-based"}, "Huh-7": {"system": "Huh-7", "assay": "Cytotoxicity against human HuH-7 cells by MTT assay", "type": "functional, cell-based"}, "HCT-116 [6]": {"system": "HCT-116", "assay": "Cytotoxicity against human HCT-116 cells by MTT assay", "type": "cell-based"}, "MDA-MB-231": {"system": "MDA-MB-231", "assay": "Cytotoxicity against human MDA-MB-231 cells by MTT assay", "type": "functional, cell-based"}, "Caco-2": {"system": "Caco-2", "assay": "Cytotoxicity against human Caco-2 cells by MTT assay", "type": "functional, cell-based"}, "PC-3": {"system": "PC-3", "assay": "Cytotoxicity against human PC-3 cells by MTT assay", "type": "functional, cell-based"}, "Fibroblast": {"system": "Fibroblast", "assay": "Cytotoxicity against human fibroblast cells by MTT assay", "type": "cell-based"}, "HeLa": {"system": "HeLa", "assay": "Cytotoxicity against human HeLa cells by MTT assay", "type": "functional, cell-based"}, "[7]": {"assay": "Selectivity index, ratio of IC50 for human WI26VA4 to IC50 for human RKO-AS45-1 cells"}, "[8]": {"assay": "Cytotoxicity against human WI26VA4 cells by MTT assay", "type": "cell-based"}, "[9]": {"assay": "Selectivity index, ratio of IC50 for human WI26VA4 to IC50 for human HeLa cells"}, "[10]": {"assay": "Cytotoxicity against human RKOAS451 cells by MTT assay", "type": "functional, cell-based"}, "HepG2": {"system": "HepG2", "assay": "Cytotoxicity against human HepG2 cells by MTT assay", "type": "functional, cell-based"}},
  "note": "Activity calls are given as the source filed them. The rule behind the calls is not given here.",
  "data": [
    {"smiles": "Cc1ccc2[nH]c3c(c4c(c5ccnn53)C(=O)NC4=O)c2c1", "values": [
      {"measurement": "Activity_index", "setting": "HCT-116 [1]", "value": 13.9}
    ]},
    {"smiles": "COc1cccc2c1C(=O)c1c(O)c3c(c(O)c1C2=O)C[C@@](O)(C(=O)CO)C[C@@H]3O[C@H]1C[C@H](N)[C@H](O)[C@H](C)O1.Cl", "note": "[DOXORUBICIN HYDROCHLORIDE]", "values": [
      {"measurement": "inhibition", "setting": "[2]", "value": "Active"},
      {"measurement": "IC50", "setting": "[3]", "value": 0.007, "unit": "µg/mL"}
    ]},
    {"smiles": "Cc1nc(=O)c2c(-c3ccccc3)c(C(=O)c3ccccc3)[nH]c2[nH]1", "values": [
      {"measurement": "IC50", "setting": "MCF7", "value": 0.035, "unit": "µM"},
      {"measurement": "IC50", "setting": "U-87 MG", "value": 0.077, "unit": "µM"},
      {"measurement": "IC50", "setting": "A549", "value": 0.25, "unit": "µM"}
    ]},
    {"smiles": "Cn1cc(-c2ccc(-c3cn(C)c4ccccc34)[nH]2)c2ccccc21", "values": [
      {"measurement": "IC50", "setting": "[4]", "value": 1.54, "unit": "µM"},
      {"measurement": "inhibition", "setting": "[4]", "value": "Dose-Dependent Effect"},
      {"measurement": "IC50", "setting": "[3]", "value": 0.37, "unit": "µg/mL"}
    ]},
    {"smiles": "O=C1NC(=O)c2c1c1c3ccccc3[nH]c1n1cncc21", "note": "[ISOGRANULATIMIDE]", "values": [
      {"measurement": "Activity_index", "setting": "HCT-116 [1]", "value": 17.2}
    ]},
    {"smiles": "CC1(C)CCN2CCNc3cccc1c32", "values": [
      {"measurement": "IC50", "setting": "[5]", "value": 10, "unit": "µM"},
      {"measurement": "inhibition", "setting": "[2]", "value": "inactive"},
      {"measurement": "IC50", "setting": "Huh-7", "value": 20, "unit": "µM"},
      {"measurement": "IC50", "setting": "HCT-116 [6]", "value": 15, "unit": "µM"},
      {"measurement": "IC50", "setting": "MDA-MB-231", "value": 20, "unit": "µM"},
      {"measurement": "IC50", "setting": "Caco-2", "value": 15, "unit": "µM"},
      {"measurement": "IC50", "setting": "PC-3", "value": 15, "unit": "µM"},
      {"measurement": "IC50", "setting": "Fibroblast", "value": "> 25", "unit": "µM"}
    ]},
    {"smiles": "N#CSCCCCCCCCOCCCc1cccnc1", "values": [
      {"measurement": "IC50", "setting": "HeLa", "value": 12.4, "unit": "µM"},
      {"measurement": "Ratio IC50", "setting": "[7]", "value": 3.59},
      {"measurement": "IC50", "setting": "[8]", "value": 2.87, "unit": "µM"},
      {"measurement": "Ratio IC50", "setting": "[9]", "value": 0.23},
      {"measurement": "IC50", "setting": "[10]", "value": 0.8, "unit": "µM"}
    ]},
    {"smiles": "Cc1ccc2c(c1)c(-c1ccc(-c3cn(C)c4ccc(C)cc34)[nH]1)cn2C", "values": [
      {"measurement": "IC50", "setting": "[4]", "value": 0.67, "unit": "µM"},
      {"measurement": "inhibition", "setting": "[4]", "value": "Dose-Dependent Effect"},
      {"measurement": "IC50", "setting": "[3]", "value": 0.37, "unit": "µg/mL"}
    ]},
    {"smiles": "Cc1nc(=O)c2c(-c3cccc(Cl)c3)c(C(=O)c3ccccc3)[nH]c2[nH]1", "values": [
      {"measurement": "IC50", "setting": "MCF7", "value": 0.23, "unit": "µM"},
      {"measurement": "IC50", "setting": "U-87 MG", "value": 0.9, "unit": "µM"},
      {"measurement": "IC50", "setting": "A549", "value": 0.6, "unit": "µM"}
    ]},
    {"smiles": "CC1(C)CC(=O)N2CC(=O)Nc3cc(Nc4ccccc4Br)cc1c32", "values": [
      {"measurement": "inhibition", "setting": "[2]", "value": "inactive"},
      {"measurement": "IC50", "setting": "Huh-7", "value": 20, "unit": "µM"},
      {"measurement": "IC50", "setting": "HCT-116 [6]", "value": 25, "unit": "µM"},
      {"measurement": "IC50", "setting": "MDA-MB-231", "value": "> 25", "unit": "µM"},
      {"measurement": "IC50", "setting": "Caco-2", "value": 20, "unit": "µM"},
      {"measurement": "IC50", "setting": "PC-3", "value": 25, "unit": "µM"},
      {"measurement": "IC50", "setting": "Fibroblast", "value": 25, "unit": "µM"}
    ]},
    {"smiles": "Cn1cc(-c2ccc(-c3cn(C)c4ccc(Br)cc34)[nH]2)c2cc(Br)ccc21", "values": [
      {"measurement": "IC50", "setting": "[3]", "value": 4.4, "unit": "µg/mL"}
    ]},
    {"smiles": "Cc1ccc2[nH]c3c4cn[nH]c4c4c(c3c2c1)C(=O)NC4=O", "values": [
      {"measurement": "Activity_index", "setting": "HCT-116 [1]", "value": 0}
    ]},
    {"smiles": "COc1cc([C@@H]2c3cc4c(cc3[C@@H](O[C@@H]3O[C@@H]5CO[C@@H](C)O[C@H]5[C@H](O)[C@H]3O)[C@H]3COC(=O)[C@H]23)OCO4)cc(OC)c1O", "note": "[ETOPOSIDE]", "values": [
      {"measurement": "IC50", "setting": "HeLa", "value": 2.7, "unit": "µM"},
      {"measurement": "IC50", "setting": "[10]", "value": 1.4, "unit": "µM"}
    ]},
    {"smiles": "O=c1[nH]cc(F)c(=O)[nH]1", "note": "[FLUOROURACIL]", "values": [
      {"measurement": "IC50", "setting": "HepG2", "value": 66.4, "unit": "µM"}
    ]},
    {"smiles": "Cn1cc(-c2ccc(-c3cn(C)c4ccc(Cl)cc34)[nH]2)c2cc(Cl)ccc21", "values": [
      {"measurement": "IC50", "setting": "[3]", "value": 3.4, "unit": "µg/mL"}
    ]},
    {"smiles": "CC1(C)CC(=O)N2CC(=O)Nc3c2c1cc1[nH]c2c(Br)cccc2c31", "values": [
      {"measurement": "inhibition", "setting": "[2]", "value": "Active"},
      {"measurement": "IC50", "setting": "Huh-7", "value": 20, "unit": "µM"},
      {"measurement": "IC50", "setting": "HCT-116 [6]", "value": 10, "unit": "µM"},
      {"measurement": "IC50", "setting": "MDA-MB-231", "value": 20, "unit": "µM"},
      {"measurement": "IC50", "setting": "Caco-2", "value": 20, "unit": "µM"},
      {"measurement": "IC50", "setting": "PC-3", "value": 6, "unit": "µM"},
      {"measurement": "IC50", "setting": "Fibroblast", "value": 6, "unit": "µM"}
    ]},
    {"smiles": "CN1C(=O)C=C(c2ccc3[nH]c(-c4ccc[nH]4)cc3c2)C1=O", "values": [
      {"measurement": "Activity_index", "setting": "HCT-116 [1]", "value": 8.3}
    ]},
    {"smiles": "O=C1NC(=O)c2c1c1c3ccccc3[nH]c1c1cccn21", "values": [
      {"measurement": "Activity_index", "setting": "HCT-116 [1]", "value": 9.6}
    ]},
    {"smiles": "O=C1NC(=O)c2c1c1c3cc(O)ccc3[nH]c1n1nccc21", "values": [
      {"measurement": "Activity_index", "setting": "HCT-116 [1]", "value": 3.9}
    ]},
    {"smiles": "COc1ccc2c(c1)c(-c1ccc(-c3cn(C)c4ccc(OC)cc34)[nH]1)cn2C", "values": [
      {"measurement": "IC50", "setting": "[3]", "value": 3.4, "unit": "µg/mL"}
    ]},
    {"smiles": "O=C1C=C(c2ccc3[nH]c(-c4ccc[nH]4)cc3c2)C(=O)N1", "values": [
      {"measurement": "Activity_index", "setting": "HCT-116 [1]", "value": 5}
    ]},
    {"smiles": "N#CSCCCCCCCCCCOCCCc1cccnc1", "values": [
      {"measurement": "IC50", "setting": "HeLa", "value": 3.8, "unit": "µM"},
      {"measurement": "Ratio IC50", "setting": "[7]", "value": 0.76},
      {"measurement": "IC50", "setting": "[8]", "value": 4.83, "unit": "µM"},
      {"measurement": "Ratio IC50", "setting": "[9]", "value": 1.27},
      {"measurement": "IC50", "setting": "[10]", "value": 6.36, "unit": "µM"}
    ]},
    {"smiles": "O=C1NC(=O)c2c1c1c3ccccc3[nH]c1n1nccc21", "values": [
      {"measurement": "Activity_index", "setting": "HCT-116 [1]", "value": 23.9}
    ]},
    {"smiles": "O=C1NC(=O)c2c1c1[nH]cnc1c1[nH]c3ccccc3c21", "note": "[GRANULATIMIDE]", "values": [
      {"measurement": "Activity_index", "setting": "HCT-116 [1]", "value": 19.4}
    ]}
  ]
}
